# According to paper PMC6261651, “A functional proteomics platform to reveal the sequence determinants of lysine methyltransferase substrate selectivity” (Science Advances, 2018):
# “Also recorded” adds a separate entry of the source. Where no end group is shown, it is not given here. [ ]: non-standard residue; d: D form. Nle = CCCC[C@H](N)C(=O)O
# Tests used:
# Format in all cases: biochemical
# SMYD2 [1] = molecular target: T1, SMYD2 (Homo sapiens, UniProt Q9NRG4); assay: SPA kinetic analysis of SMYD2 methylation of peptide substrates; conditions: 200 nM SMYD2, 50 μM SAM, varied substrate concentration, mean of three independent measurements (Fig. 4D)
# T1 construct: SMYD2 (full length) was expressed as a N-terminal glutathione S-transferase (GST) fusion; GST (N); made in house; host or cells: Escherichia coli BL21(DE3)
# T1 sequence (Q9NRG4 whole entry, the tested form may be a part): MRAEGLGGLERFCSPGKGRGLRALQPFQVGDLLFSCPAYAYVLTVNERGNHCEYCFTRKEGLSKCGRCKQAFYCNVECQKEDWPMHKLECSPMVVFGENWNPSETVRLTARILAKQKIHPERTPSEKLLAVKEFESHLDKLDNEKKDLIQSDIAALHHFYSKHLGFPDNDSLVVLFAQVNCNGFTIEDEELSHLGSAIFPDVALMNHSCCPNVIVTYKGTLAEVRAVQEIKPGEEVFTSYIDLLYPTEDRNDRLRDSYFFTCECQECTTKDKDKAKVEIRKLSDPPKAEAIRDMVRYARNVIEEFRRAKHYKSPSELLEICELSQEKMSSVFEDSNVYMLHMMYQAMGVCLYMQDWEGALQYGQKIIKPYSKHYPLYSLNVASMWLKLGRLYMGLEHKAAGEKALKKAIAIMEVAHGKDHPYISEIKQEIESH
# Protocol: (§1) Reactions (10 μl) containing 1 μg of KMT, 1 μg of a K-OPL set, and 1 μCi of ^3H-SAM (PerkinElmer) in KMT reaction buffer [50 mM tris (pH 8.8), 5 mM MgCl2, and 4 mM dithiothreitol] were incubated for 1 hour at room temperature. Reactions were stopped by adding trifluoracetic acid to a final concentration of 0.5%, neutralized by diluting with 135 μl of 50 mM NaHCO3, and transferred to streptavidin-coated FlashPlates (PerkinElmer). Plates were incubated for 15 min, sealed, and counted in a MicroBeta2 liquid scintillation counter (PerkinElmer) for 1 min per sample. Initial rate measure and kinetic analysis were performed using the same procedure with 200 nM SMYD2, 50 μM SAM (5:1 cold/hot ratio), and 80 μM substrate (initial rate measurements) or as indicated (kinetic analysis). IC50 measurements were performed using the same conditions with 5 μM PER2 peptide as a substrate.
# SMYD2 [2] = molecular target: T1, SMYD2; assay: In vitro SMYD2 methyltransferase assay with protein substrates (SDS-PAGE, 3H fluorography); conditions: 1 μg of KMT, 1 μg of substrate, 1 μCi 3H-SAM, 1 hour, room temperature; 3H fluorography (Fig. 5A, 5B, fig. S5A)
# Protocol: Reactions (10 μl) containing 1 μg of KMT, 1 μg of the indicated substrates, and 1 μCi of ^3H-SAM (PerkinElmer) in KMT reaction buffer were incubated for 1 hour at room temperature. Reactions were quenched by the addition of SDS loading buffer and resolved by SDS–polyacrylamide gel electrophoresis. Following the detection of total protein by Coomassie staining, gels were treated with EN^3HANCE (PerkinElmer) and dried, and methylated proteins were detected by autoradiography.
# Fig. S5. In vitro SMYD2 assays with protein substrates. (A) Coomassie stained SDS-PAGE of recombinant control (HIS-GST), known substrates (p53, MAPKAPK3), and predicted substrates (PRDM11, GDAP1, MAP3K12) in the absence and presence of SMYD2. Reactions were carried out with 1 μg of SMYD2, 1 μg of substrate, and 1 μCi of 3H-SAM. 3H fluorograph shown below after 24 hour exposure at -80 °C (B) Cartoon repre- sentation of ZPK (PDB:
# 5CEN) showing plus and minus three amino acids from the target lysine (PO) as stick models.
# (1 picture or pasted object on this page, not shown here)
# SMYD2 [3] = molecular target: T1, SMYD2; assay: SPA initial rate measurements with peptide substrates, SMYD2; conditions: 200 nM SMYD2, 50 μM SAM (5:1 cold/hot), 80 μM substrate, room temperature, mean of three independent measurements (Fig. 2F), text gives words only
# Source text: To measure enzyme activity, we developed a scintillation proximity assay (SPA), which quantified the transfer of tritium-labeled methyl groups from the cofactor and methyl donor S-adenosylmethionine (SAM) to each K-OPL set (Fig. 1B). SPAs permit sensitive analysis of enzymatic activity and are advantageous when the reaction product is unknown. This platform enabled us to rapidly determine a KMT’s preference for any amino acid (except cysteine) at any position ± three positions from a target lysine.
# as §1
# SMYD2 [4] = molecular target: T1, SMYD2; assay: IC50 measurements of Nle peptide inhibitors of SMYD2 using PER2 as a substrate (SPA); conditions: 200 nM SMYD2, 50 μM SAM, 5 μM PER2 peptide as substrate, mean of three (Fig. 4E), IC50 values not given
# Protocol: as §1
# SMYD2 [5] = molecular target: T1, SMYD2; assay: MALDI-TOF-MS and MS/MS analysis of methylation products, SMYD2; conditions: 200 nM KMT, 80 μM peptide, 50 μM SAM, 1 hour, room temperature; MALDI-TOF-MS (Fig. 3C)
# Protocol: (§2) For MS experiments, 200 nM KMT, 80 μM peptide, and 50 μM SAM were incubated in KMT reaction buffer for 1 hour at room temperature. Reactions were quenched with 0.5% trifluoroacetic acid and analyzed by MS. KMT-reacted samples were deposited on a MALDI target plate (4 μl per spot) and mixed with 1 μl of matrix solution (α-cyano-4-hydroxycinnamic acid in 50% acetonitrile). MALDI-TOF-MS and MS/MS (positive ion mode at 1 kV) spectra were collected using SCIEX TOF/TOF 5800 MALDI MS spectrometer. The peptide fragmentation modeling and peak assignments were done using the Peptide Sequence Fragmentation Modeling tool (https://omics.pnl.gov/software/molecular-weight-calculator).
# SET7/9 [6] = molecular target: T2, SET7/9 (Homo sapiens, UniProt Q8WTS6); assay: SPA initial rate measurements with peptide substrates, SET7/9; conditions: 3H-SAM, 50 μM SAM (5:1 cold/hot), 80 μM substrate, room temperature, mean of three independent measurements (Fig. 2E), text gives words only
# T2 construct: purchased New England BioLabs M0223
# T2 sequence (Q8WTS6 1-366): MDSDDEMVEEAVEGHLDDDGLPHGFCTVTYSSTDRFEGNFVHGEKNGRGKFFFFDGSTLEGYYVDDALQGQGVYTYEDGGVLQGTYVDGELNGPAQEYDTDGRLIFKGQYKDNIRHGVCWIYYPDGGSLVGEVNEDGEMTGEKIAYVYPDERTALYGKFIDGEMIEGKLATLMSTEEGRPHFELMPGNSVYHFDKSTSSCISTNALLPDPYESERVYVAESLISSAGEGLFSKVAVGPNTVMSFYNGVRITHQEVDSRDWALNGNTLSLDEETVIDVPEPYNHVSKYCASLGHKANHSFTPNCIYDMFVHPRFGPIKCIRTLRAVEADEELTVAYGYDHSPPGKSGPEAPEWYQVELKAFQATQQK
# SET7/9 [7] = molecular target: T2, SET7/9; assay: MALDI-TOF-MS and MS/MS analysis of methylation products, SET7/9; conditions: 200 nM KMT, 80 μM peptide, 50 μM SAM, 1 hour, room temperature; MALDI-TOF-MS (Fig. 3B)
# Protocol: as §2
# G9a [8] = molecular target: T3, G9a (Homo sapiens, UniProt Q96KQ7); assay: MALDI-TOF-MS and MS/MS analysis of methylation products, G9a; conditions: 200 nM KMT, 80 μM peptide, 50 μM SAM, 1 hour, room temperature; MALDI-TOF-MS (Fig. 3A)
# T3 construct: G9a (amino acids 913 to 1210) was produced as a 6XHis N-terminal fusion; 6XHis (N); made in house; host or cells: Escherichia coli BL21(DE3)
# T3 sequence (Q96KQ7 913-1210): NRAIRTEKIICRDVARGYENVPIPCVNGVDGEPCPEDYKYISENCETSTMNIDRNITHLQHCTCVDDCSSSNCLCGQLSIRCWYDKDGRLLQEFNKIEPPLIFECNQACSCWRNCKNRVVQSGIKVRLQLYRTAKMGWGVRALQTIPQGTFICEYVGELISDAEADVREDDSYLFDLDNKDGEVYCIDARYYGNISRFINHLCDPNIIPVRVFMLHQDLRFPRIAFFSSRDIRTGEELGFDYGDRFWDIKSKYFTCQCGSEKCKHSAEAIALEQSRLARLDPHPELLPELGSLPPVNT
# Protocol: as §2
# G9a [9] = molecular target: T3, G9a; assay: SPA initial rate measurements with peptide substrates, G9a; conditions: 3H-SAM, 50 μM SAM (5:1 cold/hot), 80 μM substrate, room temperature, mean of three independent measurements (Fig. 2D), text gives words only
substance,measurement,setting,value
DKLKSKR [PER2 derivative peptide with aspartic acid in the P−3 position],kinetic model of SMYD2 methylation,SMYD2 [1],followed a classical MM model
PRDM11 K89D: PRDM11 mutant predicted to render this SMYD2 substrate deficient,methylation of recombinant protein substrate by SMYD2,SMYD2 [2],reduced compared to the wild-type PRDM11
PRDM11: recombinant PRDM11 (amino acids 79 to 314),methylation of recombinant protein substrate by SMYD2,SMYD2 [2],"methylated by SMYD2; also recorded: at least as efficiently as the known substrate, p53"
RKDKSKR [PER2 derivative peptide with aspartic acid in the P−1 position],rate of methylation by SMYD2 (substrate efficiency),SMYD2 [3],equally poor SMYD2 substrates
RKD[Nle]SKR [Nle derivative of RKDKSKR],inhibition of SMYD2 methylation of PER2,SMYD2 [4],less effective
RKLKEKR [PER2 derivative peptide with glutamic acid in the P+1 position],rate of methylation by SMYD2 (substrate efficiency),SMYD2 [3],equally poor SMYD2 substrates
"RKLKSKR [PER2 K798, peptide corresponding to lysine 798 of PER2; SMYD2 substrate]",methylation products with SMYD2,SMYD2 [5],addition of a single methyl group
same,rate of methylation by SMYD2 (substrate efficiency),SMYD2 [3],more efficient substrate than peptides corresponding to previously reported SMYD2 substrates p53 K370 and MAPKAPK3 K355
"RRSKRRK [SCN5A K477, optimal SET7/9 substrate predicted by K-OPL]",rate of methylation by SET7/9 (substrate efficiency),SET7/9 [6],methylated at a faster rate than p53 K372
same,methylation products with SET7/9,SET7/9 [7],addition of a single methyl group
"SHLKSKK [p53 K370, peptide corresponding to previously reported SMYD2 substrate p53 K370, reference compound]",kinetic model of SMYD2 methylation,SMYD2 [1],standard Michaelis-Menten (MM) model
same,kinetic model of SMYD2 methylation,SMYD2 [1]; listed as p53,classical MM kinetics
TARKRFK [optimal G9a peptide substrate derived from the K-OPL profile],methylation products with G9a,G9a [8],both monomethyl and dimethyl products
same,rate of methylation by G9a (substrate efficiency),G9a [9],more efficient substrate than H3K9 or WIZ
"WKLKSKR [optimal K-OPL-derived SMYD2 substrate, not found in any human protein]",kinetic model of SMYD2 methylation,SMYD2 [1],consistent with substrate inhibition
same,rate of methylation by SMYD2 (substrate efficiency),SMYD2 [3],increased the rate of methylation
